Assay results as given in ChEMBL document CHEMBL1909046, “DrugMatrix in vitro pharmacology data”.

Tests used:
[1] = biological target: Sigma non-opioid intracellular receptor 1 (Homo sapiens, UniProt Q99720); test: DRUGMATRIX: Sigma1 radioligand binding (ligand: [3H] Haloperidol); type: cell membranes, Jurkat, Membrane; conditions: Not Active = under 50% inhibition at 10 µM
[2] = DRUGMATRIX: Glutamate, AMPA radioligand binding (ligand: [3H] AMPA); type: cell membranes, Rattus norvegicus, Wistar, Cerebral cortex, Membrane; conditions: Not Active = under 50% inhibition at 10 µM
[3] = biological target: Melanocortin receptor 3 (Homo sapiens, UniProt P41968); type: cell membranes, HEK293, Membrane; conditions: hek293; also: in other assays of this panel Not Active means under 50% inhibition at 10 µM
[4] = biological target: Melanocortin receptor 5 (Homo sapiens, UniProt P33032); type: cell membranes, HEK293, Membrane; conditions: hek293; also: in other assays of this panel Not Active means under 50% inhibition at 10 µM
[5] = biological target: T1, Interstitial collagenase (Homo sapiens, UniProt P03956); test: biochemical; type: tissue-based, Rheumatoid synovial fibroblasts;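 also: MMP-1 enzyme inhibition assay using a peptide substrate; in other assays of this panel Not Active means under 50% inhibition at 10 µM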
T1 sequence (P03956 whole entry): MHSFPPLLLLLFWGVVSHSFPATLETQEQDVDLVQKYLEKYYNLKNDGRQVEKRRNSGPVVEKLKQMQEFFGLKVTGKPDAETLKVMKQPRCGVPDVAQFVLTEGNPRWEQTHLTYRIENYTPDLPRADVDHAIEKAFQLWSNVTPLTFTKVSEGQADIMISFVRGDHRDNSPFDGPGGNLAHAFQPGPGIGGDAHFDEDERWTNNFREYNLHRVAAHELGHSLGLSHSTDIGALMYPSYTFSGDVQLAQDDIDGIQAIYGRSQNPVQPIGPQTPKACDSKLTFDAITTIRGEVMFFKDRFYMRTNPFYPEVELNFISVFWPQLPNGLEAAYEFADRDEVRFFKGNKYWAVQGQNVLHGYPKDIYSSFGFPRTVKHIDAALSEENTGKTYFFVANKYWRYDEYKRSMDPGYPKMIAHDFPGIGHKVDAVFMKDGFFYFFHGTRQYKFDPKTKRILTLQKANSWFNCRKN

[6] = biological target: T2, Adenosine receptor A1 (Homo sapiens, UniProt P30542); type: cell membranes, CHO, Membrane; conditions: cho;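 also: radioligand binding assay at the adenosine A1 receptor, with DPCPX serving as the labelled ligand; in other assays of this panel Not Active means under 50% inhibition at 10 µM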
T2 sequence (P30542 whole entry): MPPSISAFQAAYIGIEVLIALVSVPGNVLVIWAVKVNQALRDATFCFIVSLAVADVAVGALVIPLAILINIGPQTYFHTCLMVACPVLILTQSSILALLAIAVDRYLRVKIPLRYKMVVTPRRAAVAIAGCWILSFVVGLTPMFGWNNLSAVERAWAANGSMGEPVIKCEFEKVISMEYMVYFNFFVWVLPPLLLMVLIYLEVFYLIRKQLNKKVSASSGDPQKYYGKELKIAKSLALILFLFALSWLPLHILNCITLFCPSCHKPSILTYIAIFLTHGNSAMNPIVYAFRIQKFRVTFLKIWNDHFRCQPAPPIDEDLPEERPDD

Melanocortin receptor 3, sequence (P41968 whole entry): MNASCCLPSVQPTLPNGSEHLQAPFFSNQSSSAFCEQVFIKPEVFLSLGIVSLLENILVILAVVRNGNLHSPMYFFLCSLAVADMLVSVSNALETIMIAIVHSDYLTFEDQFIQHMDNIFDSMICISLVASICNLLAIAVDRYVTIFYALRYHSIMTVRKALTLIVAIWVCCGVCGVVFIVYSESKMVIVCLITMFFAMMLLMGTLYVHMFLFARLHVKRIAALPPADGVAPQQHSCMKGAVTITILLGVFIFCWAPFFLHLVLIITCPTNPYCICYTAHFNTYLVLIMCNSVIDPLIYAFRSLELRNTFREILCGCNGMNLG
Sigma non-opioid intracellular receptor 1, sequence (Q99720 whole entry): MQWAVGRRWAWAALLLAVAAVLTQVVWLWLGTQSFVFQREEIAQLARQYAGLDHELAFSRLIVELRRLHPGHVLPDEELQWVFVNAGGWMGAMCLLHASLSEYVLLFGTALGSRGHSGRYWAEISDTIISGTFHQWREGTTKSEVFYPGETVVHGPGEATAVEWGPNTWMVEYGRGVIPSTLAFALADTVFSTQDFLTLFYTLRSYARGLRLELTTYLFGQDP
Melanocortin receptor 5, sequence (P33032 whole entry): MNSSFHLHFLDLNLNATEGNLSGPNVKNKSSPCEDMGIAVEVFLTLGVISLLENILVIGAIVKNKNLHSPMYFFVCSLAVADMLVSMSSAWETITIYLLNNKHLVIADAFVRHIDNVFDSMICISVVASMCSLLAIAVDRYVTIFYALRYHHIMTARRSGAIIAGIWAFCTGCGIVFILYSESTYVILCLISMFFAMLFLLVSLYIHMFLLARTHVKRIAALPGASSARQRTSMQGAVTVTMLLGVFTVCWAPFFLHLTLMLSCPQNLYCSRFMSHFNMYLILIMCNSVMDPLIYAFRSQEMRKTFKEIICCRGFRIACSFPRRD

For `CC[C@@]1(O)C(=O)OCc2c1cc1n(c2=O)Cc2cc3c(CN(C)C)c(O)ccc3nc2-1` [TOPOTECAN], the IC50 ([1]; jurkat) was “Not Active”, the IC50 [2] was “Not Active” and the Ki [2] was “Not Active”. For the same compound, the IC50 [3] was “Not Active”, the IC50 [4] was “Not Active” and the IC50 [5] was “Not Active”. For the same compound, the IC50 [6] was “Not Active”.
In the case of `C#C[C@]1(O)CC[C@H]2[C@@H]3[C@H](C)CC4=C(CCC(=O)C4)[C@H]3CC[C@@]21C` [TIBOLONE], the IC50 ([1]; jurkat) is reported as “Not Active”, the IC50 [2] is reported as “Not Active” and the Ki [2] is reported as “Not Active”. For the same compound, the IC50 [3] was “Not Active”, the IC50 [4] was “Not Active” and the IC50 [5] was “Not Active”. The IC50 [6] was “Not Active”.
In the case of `Oc1ccc(/C=C/c2cc(O)cc(O)c2)cc1` [RESVERATROL], the IC50 ([1]; jurkat) is reported as “Not Active”, the IC50 [2] is reported as “Not Active” and the Ki [2] is reported as “Not Active”. For the same compound, the IC50 [3] was “Not Active”, the IC50 [4] was “Not Active” and the IC50 [5] was “Not Active”. The IC50 [6] was “Not Active”.
With `Cc1ccc(Cl)c(Nc2ccccc2C(=O)O)c1Cl` [MECLOFENAMIC ACID] the IC50 ([1]; jurkat) was “Not Active”, the IC50 [2] was “Not Active” and the Ki [2] was “Not Active”. For the same compound, the IC50 [3] was “Not Active”, the IC50 [4] was “Not Active” and the IC50 [5] was “Not Active”. The IC50 [6] was “Not Active”.
With `Cc1ccnc(NS(=O)(=O)c2ccc(N)cc2)n1` [SULFAMERAZINE] the IC50 ([1]; jurkat) was “Not Active”, the IC50 [2] was “Not Active” and the Ki [2] was “Not Active”. The IC50 [3] was “Not Active”, the IC50 [4] was “Not Active” and the IC50 [5] was “Not Active”. The IC50 [6] was “Not Active”.
In the case of `CCOc1cc(N)c(Cl)cc1C(=O)NCC1CN(Cc2ccc(F)cc2)CCO1` (stereo unspecified) [MOSAPRIDE], the IC50 ([1]; read-out: IC50) is reported as 0.306 µM, the Ki ([1]; read-out: Ki) is reported as 0.128 µM and the IC50 [2] is reported as “Not Active”. For the same compound, the Ki [2] was “Not Active”, the IC50 [3] was “Not Active” and the IC50 [4] was “Not Active”. For the same compound, the IC50 [5] was “Not Active” and the IC50 [6] was “Not Active”.
In the case of `C[C@]12CCC(=O)C[C@@H]1CC[C@@H]1[C@@H]2CC[C@]2(C)[C@@H](O)CC[C@@H]12` [STANOLONE], the IC50 ([1]; jurkat) is reported as “Not Active”, the IC50 [2] is reported as “Not Active” and the Ki [2] is reported as “Not Active”. The IC50 [3] was “Not Active”, the IC50 [4] was “Not Active” and the IC50 [5] was “Not Active”. For the same compound, the IC50 [6] was “Not Active”.
With `C[N+]1(C)[C@@H]2C[C@@H](OC(=O)[C@H](CO)c3ccccc3)C[C@H]1[C@@H]1O[C@@H]12.[Br-]` [METHSCOPOLAMINE BROMIDE] the IC50 ([1]; jurkat) was “Not Active”, the IC50 [2] was “Not Active” and the Ki [2] was “Not Active”. For the same compound, the IC50 [3] was “Not Active”, the IC50 [4] was “Not Active” and the IC50 [5] was “Not Active”. For the same compound, the IC50 [6] was “Not Active”.
For `OC[C@@H](O)[C@@H](O)[C@H](O)[C@H](O)CO` [MANNITOL], the IC50 ([1]; jurkat) was “Not Active”, the IC50 [2] was “Not Active” and the Ki [2] was “Not Active”. The IC50 [3] was “Not Active”, the IC50 [4] was “Not Active” and the IC50 [5] was “Not Active”. For the same compound, the IC50 [6] was “Not Active”.
With `O=C(O)c1cc(/N=N/c2ccc(S(=O)(=O)Nc3ccccn3)cc2)ccc1O` [SULFASALAZINE] the IC50 ([1]; jurkat) was “Not Active”, the IC50 [2] was “Not Active” and the Ki [2] was “Not Active”. For the same compound, the IC50 [3] was “Not Active”, the IC50 [4] was “Not Active” and the IC50 ([5]; read-out: IC50) was 23.5 µM. For the same compound, the IC50 [6] was “Not Active”.
For `CC1=C(/C=C/C(C)=C/C=C/C(C)=C/C(=O)O)C(C)(C)CCC1` [TRETINOIN], the IC50 ([1]; jurkat) was “Not Active”, the IC50 [2] was “Not Active” and the Ki [2] was “Not Active”. The IC50 [3] was “Not Active”, the IC50 [4] was “Not Active” and the IC50 [5] was “Not Active”. For the same compound, the IC50 [6] was “Not Active”.
With `CC[C@H](C)C(=O)O[C@H]1CCC=C2C=C[C@H](C)[C@H](CC[C@@H]3C[C@@H](O)CC(=O)O3)[C@H]21` [MEVASTATIN] the IC50 ([1]; jurkat) was “Not Active”, the IC50 [2] was “Not Active” and the Ki [2] was “Not Active”. The IC50 [3] was “Not Active”, the IC50 [4] was “Not Active” and the IC50 [5] was “Not Active”. For the same compound, the IC50 [6] was “Not Active”.
In the case of `CCN(CC)C(=S)SSC(=S)N(CC)CC`, the IC50 ([1]; jurkat) is reported as “Not Active”, the IC50 [2] is reported as “Not Active” and the Ki [2] is reported as “Not Active”. The IC50 [3] was “Not Active”, the IC50 [4] was “Not Active” and the IC50 [5] was “Not Active”. The IC50 [6] was “Not Active”.
With `O=[As][O-].[Na+]` [SODIUM ARSENITE] the IC50 ([1]; jurkat) was “Not Active”, the IC50 [2] was “Not Active” and the Ki [2] was “Not Active”. For the same compound, the IC50 [3] was “Not Active”, the IC50 [4] was “Not Active” and the IC50 [5] was “Not Active”. For the same compound, the IC50 [6] was “Not Active”.
In the case of `CCN(CC)N=O` [N-NITROSODIETHYLAMINE], the IC50 ([1]; jurkat) is reported as “Not Active”, the IC50 [2] is reported as “Not Active” and the Ki [2] is reported as “Not Active”. For the same compound, the IC50 [3] was “Not Active”, the IC50 [4] was “Not Active” and the IC50 [5] was “Not Active”. The IC50 [6] was “Not Active”.
